Columns and labels:
[1] = tested on: HUVEC; assay: 3H-ATP tracer incorporation into HUVEC and repeated washes; type: cell-based, human; details: cells washed repeatedly
Description: To confirm the carboxyfluorescein studies, ^3H-ATP was used as a tracer instead of the fluor. Vesicles were incubated with HUVEC for either 5, 10, 15, 30, 45, 60, 90, 120, or 240 minutes.

[2] = tested on: severed limbs; assay: Limb replantation after perfusion of amputated hind legs; type: in vivo; details: rat hind leg replantation, perfusion every 3 hours
Description: Hind legs were amputated from rats, and the major feed arteries for the severed limbs were cannulated for infusion of A-FUV, loaded in a 1 mM ATP solution. The limbs were perfused with A-FUV or control solutions (see Table 1) every 3 hours, or as deemed necessary by the change in tissue ATP levels. The arterial pressure of the limbs were monitored during infusion to decrease the chance of flow-induced injury, and to monitor the overall preservation of the severed limbs (higher perfusion pressures may indicate limb morbidity). Following the preservation period, the limbs were flushed with Ringers to remove traces of A-FUV. The limbs were then surgically reattached, and external indices of limb function after anastomoses were evaluated (limb color, evidence of microthrombi, coagulation, limb temperature). The animals prior to and following replantation received heparin to prevent hemostasis. In addition, animals were placed on antibiotic therapy to reduce infection. Control limbs were perfused with vehicle only, vehicle and ATP only, or vehicle and FUVs only.

| Compound | radioactivity of the cells after repeated washes [1] | Limb outcome [2] |
| --- | --- | --- |
| Nc1ncnc2c1ncn2[C@@H]1O[C@H](COP(=O)(O)OP(=O)(O)OP(=O)(O)O)[C@@H](O)[C@H]1O [free ^3H-ATP, ^3H-ATP] | complete loss of radioactivity |  |
| Nc1ncnc2c1ncn2[C@@H]1O[C@H](COP(=O)(O)OP(=O)(O)OP(=O)(O)O)[C@@H](O)[C@H]1O [ATP] |  | necrosis |

Reference: patent publication US20040213766A1, “Compositions and methods for treating transplants” (priority 2002, published 2004)
